Assay results reported in patent US10087199B2, “Super-resolution imaging compositions and methods using same” (Yale University, priority 2014, dated 2018).
Blank lines part the entries; values can stand above or below the compound they belong to.

What was measured:
Type in all cases: cell-based
HeLa cells = assay: Cell viability / cell- and photo-toxicity under prolonged imaging; conditions: 5 μM
Procedure: In the experiments described above, the cells were exposed to Cer-TCO/SiR-Tz for minutes, a relatively short time period. To evaluate whether this Golgi labeling strategy would result in cell- or photo-toxicity over prolonged periods (such as hours), HeLa cells were treated with varying concentrations of either Cer-TCO/SiR-Tz or BODIPY® FL C5-ceramide (BODIPY-Cer) (Marks, et al., 2008, Cell Biol. 130:819-832; Pagano, et al., 1991, J. Cell Biol. 113:1267-1279), a commercially available fluorescent dye that labels the Golgi. […]
Hela cells stably expressing GalNAcT2-GFP were cultured on 35 mm glass bottom dishes subsequently labeled with various concentrations of TCO-Cer (0, 1, 2, and 5 μM) and SiR-Tz (0, 1, and 2 μM) following the protocol described elsewhere herein. […] After equilibration for 30 min, phase contrast images were taken at an interval of 20 min and fluorescence images at an interval of 10 min over 400-750 min. […] The number of physically intact cells was counted at each time point. For each condition at least 110 cells were counted/observed in the initial images (n0 (0 μM TCO-Cer, 0 μM SiR-Tz)=123 cells, n0 (2 μM TCO-Cer, 2 μM SiR-Tz)=113 cells, n0 (1 μM TCO-Cer, 1 μM SiR-Tz)=130 cells, n0 (5 μM TCO-Cer, 1 μM SiR-Tz)=120 cells, n0 (5 μM BODIPY-Cer)=123 cells).

HeLa cells (Golgi label) = assay: Photostability in sequential 3D spinning disk confocal imaging; conditions: live cells; spinning disk confocal
Procedure: The relative photostability of Cer-TCO/SiR-Tz to both BODIPY-Cer and the SiR labeled SNAP-tag Golgi protein Rab6 was compared. The latter is the product of reaction between Rab6-SNAP and a benzyl guanine derivative of SiR (SiR-BG) (Lukinavicius, et al., 2013, Nature Chem. 5:132-139) and thus contains the same near-IR dye as SiR-Tz (FIGS. 5A-5B). HeLa cells were treated with Cer-TCO/SiR-Tz or BODIPY-Cer, while Rab6-SNAP-expressing cells were treated with SiR-BG. The cells were then examined in sequential 3D images using spinning disk confocal microscopy; 3D visualization limited fluorescence fluctuations due to axial sample drift. In each case, 3D “stacks” of 22 optical sections were acquired in series up to 500 times in live or fixed cells (FIGS. 5A-5B). In live cells, even under optimal imaging conditions the BODIPY-Cer fluorescent signal decreased by 50% after fewer than 15 stacks. In striking contrast, the fluorescent signal of cells treated with 2 μM Cer-TCO followed by 2 μM SiR-Tz decreased by only 10% after more than 120 3D stacks had been acquired. Consistent with a lower density of Rab6-SNAP protein in the Golgi, the signal from Rab6-SNAP-SiR decayed at an intermediate rate, decreasing by 50% after about 50 3D stacks. […] After 500 3D stacks the fluorescent signal of Cer-SiR decreased 16% whereas that of Rab6-SNAP-SiR decreased by 84%. […]

[1] = system: HeLa cells that stably expressed GalNAcT2-GFP; assay: FRAP analysis of GalNAcT2-GFP mobility within the Golgi; conditions: recovery over 490 seconds, Cer-TCO alone or 5 μM Cer-TCO and 1 μM SiR-Tz, versus untreated
Source text: To further test whether the combination of Cer-TCO and SiRTz affected traffic within the Golgi, HeLa cells that stably expressed the GFP-tagged transmembrane Golgi enzyme GalNAcT2 (Storrie, et al., 1998, J. Cell Biol. 143:1505-1521) were used and its intra-organelle mobility was monitored using fluorescence recovery after photobleaching (FRAP) experiments (FIG. 4A). A small rectangular area of the Golgi (about 2.2 microns wide) was photobleached at 488 nm and the fluorescence recovery was monitored over 490 seconds (FIG. 4B). Both the t1/2 of recovery and mobile fraction were unchanged when the cells were treated with Cer-TCO alone or the combination of 5 μM Cer-TCO and 1 μM SiR-Tz (FIG. 4C). Thus, treatment of cells with Cer-TCO alone or Cer-TCO and SiR-Tz led to no detectable change in the diffusion of GalNAcT2-GFP within the Golgi apparatus.
The stable cell line was cultured on a 35 mm glass bottom dish. In the negative control (no treatment), the medium was replaced by DMEM ph(−). […] The photobleaching of the FRAP experiment was performed with a fluorescence recovery after photobleaching unit of the microscope. […] Quantification was performed with ImageJ. The fluorescence intensity in the unbleached region of the cytosol was subtracted from that in the bleached region of Golgi. […]

[2] = system: HeLa cells that stably expressed GalNAcT2-GFP (Golgi); assay: Two-step Golgi labeling and colocalization with GalNAcT2-GFP by confocal microscopy
Procedure: To evaluate whether the Golgi could be selectively imaged using Cer-SiR, HeLa cells that stably expressed a protein fusion composed of GFP and N-acetyl-galactosaminyltransferase 2 (GalNAcT2), a transmembrane protein that localizes to the Golgi with high specificity (Storrie, et al., 1998, J. Cell Biol. 143:1505-1521), were used. These cells were treated with 2 μM Cer-TCO (5 min), maintained at 19.5° C. for 60 min to localize the lipid to the Golgi, treated subsequently with 2 μM SiR-Tz (30 min), and visualized using confocal microscopy (FIG. 2A).
The GalNAcT2-GFP and Cer-SiR signals colocalized with a Pearson's coefficient of 0.50±0.02; the corresponding value for the signals from GalNAcT2-GFP and SiR-Tz was 0.08±0.01 (p<0.0001) (FIG. 10), supporting that Cer-TCO effectively localized to the Golgi and reacted efficiently with SiR-Tz.
Stably or transiently transfected HeLa cells were cultured on 35 mm glass bottom dishes (Mattek). To label with Cer-TCO/SiR-Tz, the cells were incubated in PBS containing 1% casein, 0.2% Pluronic F-127 and 2 or 5 μM TCO-Cer for 5 min at 37° C. After washing three times with DMEM ph(−), the cells were incubated for 1 h at 19.5° C. in DMEM ph(−). During this incubation the dish was sealed with parafilm to protect the cells from the used water bath. Subsequently, the cells were washed three times and PBS containing 1% casein and 2 or 1 μM SiR-Tz, respectively, was added to the dish. The dish was sealed with parafilm again and incubated for 30 min at 19.5° C. After washing three times with DMEM ph(−), the cells were observed under a confocal microscope. Fixed samples were prepared similarly with an additional treatment with 4% PFA for 10 min at room temperature after first temperature block. […]
The Pearson correlation between the SiR and the GFP signal within cells was determined using the correlation measurement tool in Volocity. […] For cells stably expressing GalNAcT2-GFP and treated with SiR-Tz and Cer-TCO 13 samples (cells) were analyzed and for cells only treated with SiR-Tz 8 samples were analyzed. […]

- Number of 3D stacks after which fluorescent signal decreased by 50% (HeLa cells (Golgi label)): < 15 stacks
SMILES: CCCCCCCCCCCCC/C=C/[C@@H](O)[C@H](CO)NC(=O)CCCCC1=[N+]2C(=Cc3c(C)cc(C)n3[B-]2(F)F)C=C1 [BODIPY-Cer, BODIPY® FL C5-ceramide, reference compound]
- Time after which cell rounding and de-attachment was induced (HeLa cells): about 6 hours

SMILES: CCCCCCCCCCCCC/C=C/[C@@H](O)[C@H](CO)NC(=O)CCCCCNC(=O)OC1CC/C=C/CCC1 (stereo partly drawn) [Cer-TCO, (E)-cyclooct-4-en-1-yl (6-(((2S,3R,E)-1,3-dihydroxyoctadec-4-en-2-yl)amino)-6-oxohexyl)carbamate]
- Mobile fraction (FRAP) [1]: unchanged

SMILES: CN(C)c1ccc2c(c1)[Si](C)(C)C1=CC(=[N+](C)C)C=CC1=C2c1cc(C(=O)NCc2ccc(-c3nncnn3)cc2)ccc1C(=O)[O-] [SiR-Tz, 4-((4-(1,2,4,5-tetrazin-3-yl)benzyl)carbamoyl)-2-(7-(dimethylamino)-3-(dimethyliminio)-5,5-dimethyl-3,5-dihydrodibenzo[b,e]silin-10-yl)benzoate]
- Pearson's coefficient of colocalization with GalNAcT2-GFP signal ([2]; 2 μM Cer-TCO then 2 μM SiR-Tz, or SiR-Tz only, Golgi area, confocal): 0.08±0.01
- Labeling of cells / Golgi region ([2]; live HeLa GalNAcT2-GFP cells, Cer-TCO followed by SiR-Tz, or SiR-Tz alone): did not label the cells
